The source of these data is patent publication US7150974B1, “Parathyroid hormone receptor binding method” (The General Hospital Corporation, priority 1991, dated 2006).

What all share (format): cell-based
Experiment [1] addresses T1, opossum kidney PTH/PTHrp receptor clone, OK-O (Didelphis virginiana, UniProt P25107, I132F/S86P).
T1 construct: expressed in transfected cells; host or cells: COS cells, transient, plasmid OK-O (pcDNA I)
The experiment in a line: Intracellular free calcium, COS cells expressing OK-O. Conditions: FIG. 12. On the procedure:
(§1) Details of the methodology are:
(§2) Coverslips plated with COS cells were incubated in Fura-2 AM loading buffer containing, in mM: HEPES (N-[2-Hydroxyethyl]piperazine-N′-[2-ethanesulfonic acid]), 20; CaCl2, 1; KCl 5; NaCl, 145; MgSO4, 0.5; NaHCO3, 25; K2HPO4, 1.4; glucose, 10; and Fura-2 AM 91-(2-5′-carboxyoxazol-2′-yl)-6-aminobenzofuran-5oxy-(2′-amino-5′-methylphenoxy)ethane-N,N,N′,N′-tetraaecetic acid acetomethoxy ester), 0.5; at 37° C. at pH7.4, aerated with 95% air and 5% CO2 for 45 minutes. Cells loaded with Fura-2 AM were then washed with a modified Krebs-Heinseleit (KH) buffer containing, in mM: HEPES, 20; CaCl2, 1; KCl, 5; NaCl, 145; MgSO4, 0.5; Na2HPO4, 1; glucose, 5; pH7.4. To check that cleavage of the ester occurred, the excitation spectra after different times of Fura-2 AM incubation were measured.
(§3) To measure fluorescence of individual cells, the cover slips were placed in a microscope tissue chamber (Biophysica Technologies, Inc., MD). The chamber consisted of a shallow, sloped compartment made of Teflon with a silicone rubber seal. The cover slips served as the bottom of the chamber. A heater/cooler ring was encased in the silicone rubber which sealed the coverslip in place.

For experiment [2], the target named is T2, rat bone PTH/PTHrP receptor (Rattus norvegicus, UniProt P25961, E586G).
T2 construct: expressed in transfected cells; host or cells: COS / COS-7 cells, transient, plasmid R15B (pcDNA I)
T2 sequence (P25961 27-591 E586G): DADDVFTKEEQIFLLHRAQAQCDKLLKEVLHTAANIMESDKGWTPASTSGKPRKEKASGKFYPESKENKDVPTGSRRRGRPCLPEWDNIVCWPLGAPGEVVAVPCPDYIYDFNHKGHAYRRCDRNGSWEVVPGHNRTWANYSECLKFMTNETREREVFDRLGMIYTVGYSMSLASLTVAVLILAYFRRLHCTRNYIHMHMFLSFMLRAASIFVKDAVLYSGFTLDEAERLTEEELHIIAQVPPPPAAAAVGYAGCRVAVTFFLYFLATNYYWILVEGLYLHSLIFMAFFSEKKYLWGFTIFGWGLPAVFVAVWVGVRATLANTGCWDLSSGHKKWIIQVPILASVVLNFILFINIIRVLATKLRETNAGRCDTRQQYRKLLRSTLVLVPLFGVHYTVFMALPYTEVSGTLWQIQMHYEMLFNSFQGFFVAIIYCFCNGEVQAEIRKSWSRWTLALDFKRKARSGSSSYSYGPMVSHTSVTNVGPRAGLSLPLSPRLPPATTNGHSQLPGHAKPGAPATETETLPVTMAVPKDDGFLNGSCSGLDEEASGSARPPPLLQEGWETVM
The experiment in a line: Intracellular free calcium, COS-7 cells expressing R15B. As to conditions: COS-7 cells expressing rat receptor. On the procedure:
as §1, §2, §3

For experiment [3], the target named is T2, rat bone PTH/PTHrP receptor. The experiment in a line: Inositol phosphate metabolism, COS cells expressing R15B. As to conditions: FIG. 15.
In experiment [4] the target is T3, human kidney PTH/PTHrP receptor (Homo sapiens, UniProt Q03431, L389Q).
T3 construct: The full-length human kidney PTH/PTHrP receptor cDNA, HKrk, was constructed using the BamHI/PvuII fragment of PCR clone #2 and HK-2; expressed in transfected cells; host or cells: COS-7 cells, transient (DEAE/Dextran), pcDNAI
T3 sequence (Q03431 27-593 L389Q): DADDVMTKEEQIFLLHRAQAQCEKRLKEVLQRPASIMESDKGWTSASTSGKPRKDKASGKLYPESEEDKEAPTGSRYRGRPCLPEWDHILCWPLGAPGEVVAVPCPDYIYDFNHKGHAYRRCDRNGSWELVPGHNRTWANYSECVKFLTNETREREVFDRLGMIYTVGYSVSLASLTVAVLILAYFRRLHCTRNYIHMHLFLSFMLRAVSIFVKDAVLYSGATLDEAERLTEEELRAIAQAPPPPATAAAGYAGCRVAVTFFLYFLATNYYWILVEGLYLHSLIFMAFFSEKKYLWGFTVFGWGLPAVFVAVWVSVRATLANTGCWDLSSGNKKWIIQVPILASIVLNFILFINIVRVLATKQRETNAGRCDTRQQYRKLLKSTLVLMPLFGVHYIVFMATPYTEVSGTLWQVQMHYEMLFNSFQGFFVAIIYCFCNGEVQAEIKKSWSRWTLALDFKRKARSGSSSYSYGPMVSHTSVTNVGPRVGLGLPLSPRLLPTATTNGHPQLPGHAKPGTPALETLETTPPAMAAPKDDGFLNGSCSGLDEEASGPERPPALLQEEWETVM
The experiment in a line: cAMP accumulation, COS-7 cells expressing human kidney receptor. As to conditions: COS-7 cells expressing human receptor, FIG. 18. The procedure: Intracellular cAMP accumulation was measured as described previously (Abou-Samra et al., J. Biol. Chem. 262:1129, 1986). Cells in 24-well plates were rinsed with culture medium containing 0.1% BSA and 2 mM IBMX. […] The supernatant was removed and the cells immediately frozen by placing the whole plate in dry ice powder. Intracellular cAMP was extracted by thawing the cells in 1 ml of 50 mM HCl and analyzed by a specific radioimmunoassay using an anti-cAMP antibody (e.g., Sigma, St. Louis, Mo.). A cAMP analog (2′-O-monosuccinyl-adenosine 3′:5′-cyclic monophosphate tyrosyl methyl ester, obtained from Sigma) which was used a tracer for cAMP was iodinated by the chloramine T method. Free iodine was removed by adsorbing the iodinated cAMP analog onto a C18 Sep-pak cartridge (Waters, Milford, Mass.). After washing with dH2O, the iodinated cAMP analog was eluted from the Sep-pak Cartridge with 40% acetonitrille (ACN) and 0.1% trifluoroacetic acid (TFA). The iodinated cAMP analog was lyophilized, reconstituted in 1 ml 0.1% TFA, and injected into a C18 reverse phase HPLC column (Waters). The column was equilibrated with 10% ACN in 0.1% TFA, and eluted with gradient of 10-30% ACN in 0.1% TFA. This allows separation of the mono-iodinated cAMP analog from the non-iodinated cAMP analog. […] The standard used for the assay, adenosine 3′:5′-cyclic monophosphate, was purchased from Sigma. […]

T1 sequence (P25107 27-585 S86P/I132F): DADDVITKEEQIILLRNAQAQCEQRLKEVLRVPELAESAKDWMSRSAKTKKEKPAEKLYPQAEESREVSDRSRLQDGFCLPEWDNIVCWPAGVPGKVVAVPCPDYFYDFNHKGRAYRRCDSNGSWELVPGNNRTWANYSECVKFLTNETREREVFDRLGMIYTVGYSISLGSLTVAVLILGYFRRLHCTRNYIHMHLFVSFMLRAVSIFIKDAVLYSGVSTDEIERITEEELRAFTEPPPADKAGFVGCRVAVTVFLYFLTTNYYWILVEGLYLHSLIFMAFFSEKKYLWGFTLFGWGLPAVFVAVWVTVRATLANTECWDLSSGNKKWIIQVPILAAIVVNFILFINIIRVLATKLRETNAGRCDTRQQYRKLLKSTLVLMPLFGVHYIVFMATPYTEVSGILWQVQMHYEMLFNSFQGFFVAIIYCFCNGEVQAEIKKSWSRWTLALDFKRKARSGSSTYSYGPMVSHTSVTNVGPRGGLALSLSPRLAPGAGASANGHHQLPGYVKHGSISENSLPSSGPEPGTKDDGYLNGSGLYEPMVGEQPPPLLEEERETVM

For the substance [Nle^8,18, Tyr^34]bPTH(1-34)amide, in experiment [1], the “increase in intracellular free calcium” value is on record as “increase”. Besides, the “increase in intracellular free calcium, PTH(1-34) compared with PTHrP(1-36)” value in experiment [2] was “to the same extent”. Further, in experiment [3], the “inositol phosphate metabolism (IP3 and IP2 accumulation)” value is recorded as “rapid increase”. The “cAMP accumulation, PTH(1-34) compared with PTHrP(1-36)” value in experiment [4] is “to the same extent”.
